In brackets after ≈: the same amount, converted by molar mass.
Legend:
[1] = test system: LNCaP cells; assay: Cell viability (AlamarBlue), LNCaP prostate cancer cells; format: cell-based, human; conditions: 72 hours of treatment
Procedure: (§1) In another exemplary method, half maximal effective concentration (EC50) was determined for some compounds and their isomers as disclosed herein in a variety of human cancer cell lines. In brief, cells from two prostate cancer cell lines (LNCaP, 22RV1), one glioblastoma cell line (U87), one breast cancer cell line (MCF7), a glioma cell line (LN18), a normal prostate cell line (RWPE1), and a glioblastoma cell line (T98G) were plated in a multi-well plate. After 24 hours, one of the compounds herein was added to the well at increasing concentrations. After 72 hours of treatment, cell viability was assessed using AlamrBlue® (Invitrogen) and fluorescence was read using the CLARIOstar Plus Multilabel Plate Reader (BMG Labtech). Samples were normalized to no treatment controls. EC50 values were determined using GraphPad Prism.

[2] = test system: 22RV1 cells; assay: Cell viability (AlamarBlue), 22RV1 prostate cancer cells; format: cell-based, human; parameters: key to EC50 (μM) in 22RV1 cells: Inactive: less than 50% inhibition at the highest concentration tested at 50 μM; conditions: 72 hours of treatment
Procedure: as §1

[3] = test system: U87 cells; assay: Cell viability (AlamarBlue), U87 glioblastoma cells; format: cell-based, human; parameters: key to EC50 (μM) in U87 cells: Inactive: less than 50% inhibition at the highest concentration tested at 50 μM; conditions: 72 hours of treatment
Procedure: as §1

[4] = Kinetic solubility in aqueous PBS buffer (HPLC-MS); format: physicochemical; conditions: kinetic from dmso stock, DMSO stock mixed with aqueous PBS buffer, filtered, read-out: Kinetic Solubility
Procedure: In another exemplary method, central nervous system multiparameter optimization (CNS MPO) score and kinetic solubility of selected compounds was determined. CNS MPO score for compounds and their isomers disclosed herein were calculated using an algorithm that uses a weighted scoring function assessing 6 key physicochemical properties (clogP, clogD, MW, TPSA, HBD, and pKa) for blood-brain-barrier (BBB penetration). CNS MPO score ranged from 0 and 6.0 with scores≥4.0 used as a cut-off to select compounds that can have a high probability of accumulating in the CNS. Kinetic solubility of a compound is the maximum solubility of the fastest precipitating species of the compound. Kinetic solubility was determined by preparing a concentrated stock solution for compounds and their isomers disclosed herein in an organic solvent (DMSO), after which the solution was mixed with an aqueous PBS buffer and then filtered. Filtrate was tested to quantify the kinetic solubilty using HPLC-MS calibration curve. The CNS MPO Score and kinetic solubility of the compounds tested are provided in Table 7 where “ND” means not determined.

[5] = test system: RWPE1 cells; assay: Cell viability (AlamarBlue), RWPE1 normal prostate cells; format: cell-based, human; parameters: key to EC50 (μM) in RWPE1 cells: Inactive: less than 50% inhibition at the highest concentration tested at 50 μM; conditions: 72 hours of treatment, normal prostate cell line
Procedure: as §1

Row | SMILES | EC50 ([1]; Homo sapiens, LNCaP, 72 h) [µM] | EC50 ([2]; Homo sapiens, 22Rv1, 72 h) [µM] | EC50 ([3]; Homo sapiens, U-87 MG, 72 h) [µM] | solubility kinetic [4] [µM] | other results
1 | COCCOC1CC(C(=O)NC(=O)Nc2ccc(Oc3ccc(Cl)cn3)c(C)c2)C1 (stereo not drawn) [Compound 49, N-((4-((5-chloropyridin-2-yl)oxy)-3-methylphenyl)carbamoyl)-3-(2-methoxyethoxy)cyclobutane-1-carboxamide] | 11.8 | 1.3 | 3.7 | 37.5 (≈ 16.3 µg/mL) | 
2 | COC1CC(C(=O)NC(=O)Nc2ccc(Oc3nccs3)c(C)c2)C1 (single isomer, unassigned) [Compound 45A, 3-methoxy-N-((3-methyl-4-(thiazol-2-yloxy)phenyl)carbamoyl)cyclobutane-1-carboxamide] |  |  |  |  | EC50 [1]: 0.9 µM; EC50 [2]: 2.8 µM; EC50 [3]: 3.7 µM; EC50 (μM) in RWPE1 cells [5]: Inactive
3 | COC1CCC(C(=O)NC(=O)Nc2ccc(Oc3cnc(N4CCOCC4)nc3)c(C)c2)CC1 (stereo not drawn) [Compound 46, 4-methoxy-N-((3-methyl-4-((2-morpholinopyrimidin-5-yl)oxy)phenyl)carbamoyl)cyclohexane-1-carboxamide] | 2.9 | 8 |  | 0.39 (≈ 0.183 µg/mL) | EC50 (μM) in U87 cells [3]: Inactive
4 | COC1CC(C(=O)NC(=O)Nc2ccc(Oc3nccs3)c(C)c2)C1 (stereo not drawn) [Compound 45, 3-methoxy-N-((3-methyl-4-(thiazol-2-yloxy)phenyl)carbamoyl)cyclobutane-1-carboxamide] |  |  |  | 58.4 (≈ 21.1 µg/mL) | 
5 | COC12CC(C(=O)NC(=O)Nc3ccc(Oc4ncc(Cl)cn4)c(C)c3)(C1)C2 [Compound 85, N-((4-((5-chloropyrimidin-2-yl)oxy)-3-methylphenyl)carbamoyl)-3-methoxybicyclo[1.1.1]pentane-1-carboxamide] |  |  | 0.06 | 2.21 (≈ 0.89 µg/mL) | 
6 | COC1CC(C(=O)NC(=O)Nc2ccc(Oc3ccc(F)cn3)c(C)c2)C1 (stereo not drawn) [Compound 15, N-((4-((5-fluoropyridin-2-yl)oxy)-3-methylphenyl)carbamoyl)-3-methoxycyclobutane-1-carboxamide] |  |  |  | 14.7 (≈ 5.48 µg/mL) | 
7 | COCCOC1CC(C(=O)NC(=O)Nc2ccc(Oc3ncc(Cl)cn3)c(C)c2)C1 (stereo not drawn) [Compound 48, N-((4-((5-chloropyrimidin-2-yl)oxy)-3-methylphenyl)carbamoyl)-3-(2-methoxyethoxy)cyclobutane-1-carboxamide] | 12.4 | 3.2 | 6.4 | 84.2 (≈ 36.6 µg/mL) | 
8 | COC1CC(C(=O)NC(=O)Nc2ccc(Oc3ncc(Cl)cn3)c(C)c2)C1 (stereo not drawn) [Compound 20, N-((4-((5-chloropyrimidin-2-yl)oxy)-3-methylphenyl)carbamoyl)-3-methoxycyclobutane-1-carboxamide] |  |  |  | 7.1 (≈ 2.77 µg/mL) | 
9 | COC1CCC(C(=O)NC(=O)Nc2ccc(Oc3ncc(Cl)cn3)c(F)c2)CC1 (single isomer, unassigned) [Compound 14B, N-((4-((5-chloropyrimidin-2-yl)oxy)-3-fluorophenyl)carbamoyl)-4-methoxycyclohexane-1-carboxamide] |  |  |  |  | EC50 (μM) in 22RV1 cells [2]: Inactive; EC50 (μM) in U87 cells [3]: Inactive; EC50 (μM) in RWPE1 cells [5]: Inactive
10 | COC1CCC(C(=O)NC(=O)Nc2ccc(Oc3ccc(C#N)cn3)c(C)c2)CC1 (stereo not drawn) [Compound 6, 3-{4-[(5-cyanopyridin-2-yl)oxy]-3-methylphenyl}-1-(4-methoxycyclohexanecarbonyl)urea] |  |  |  | 0.53 (≈ 0.216 µg/mL) | 
11 | COC1CC(C(=O)NC(=O)Nc2ccc(Oc3ccc(C#N)cn3)c(C)c2)C1 (stereo not drawn) [Compound 16, N-((4-((5-cyanopyridin-2-yl)oxy)-3-methylphenyl)carbamoyl)-3-methoxycyclobutane-1-carboxamide] |  |  |  | 11.6 (≈ 4.41 µg/mL) | 
12 | COC1CC(C(=O)NC(=O)Nc2ccc(Oc3ncns3)c(C)c2)C1 (stereo not drawn) [Compound 57, N-((4-((1,2,4-thiadiazol-5-yl)oxy)-3-methylphenyl)carbamoyl)-3-methoxycyclobutane-1-carboxamide] | 3.1 | 6.3 | 13.5 | 75 (≈ 27.2 µg/mL) | 

Source: US12404242B2, “Compositions and methods for making and using small molecules in the treatment of cancer” (Reglagene, Inc., priority 2021, dated 2025)
